In patent US20110190135A1, “SYNERGISTIC HERBICIDAL COMPOSITION CONTAINING PENOXSULAM AND BUTACHLOR” (DOW AGROSCIENCES LLC, priority 2010, published 2011):

Assays:
ECHCG - barnyard grass [1] = test: Weed control in transplanted rice, Field trial #1; format: in vivo, Ehinochloa crus-galli; conditions: 42 days after application
Method: (§1) Field trials were conducted in rice using standard herbicide small plot research methodology. Plot size was 2 m^2 using 1.6 m diameter rings placed into the paddy soil with capability for flooding with water to represent flooded rice culture. There were 3 replicates per treatment. Rice was Japonica type that was sown in rice nursery boxes as per normal cultural practices, and then transplanted 30 days after sowing into flooded rings. The rice crop was grown using normal cultural practices for fertilization, seeding, watering, flooding and maintenance to ensure good growth of the crop and the weeds under seeded rice conditions in Taiwan. Ring plot water depth was maintained at 3 to 7 cm depth after transplanting. Just prior to treatment application, plot water was drained to maintain saturated soil in ring plot. Treatments were applied by hand and water was re-induced to 3 to 7 cm depth 24 hours after application. All treatments in the field trials were applied by mixing the treatments with soil just prior to application by hand into the ring plots at 5 to 7 days after transplanting. Commercially available products of penoxsulam and butachlor were mixed in water and sprayed onto 45 grams of soil, which is equivalent to the area treated at an application rate of 225 kg soil/ha. […]

ISCRU - winklegrass = test: Weed control in transplanted rice, Field trial #3; format: in vivo, Ischaemum rugosum; conditions: 42 days after application
Method: as §1

ECHCG - barnyard grass [2] = test: Weed control in transplanted rice, Field trial #2; format: in vivo, Ehinochloa crus-galli; conditions: 28 days after application
Method: Field trials were conducted in rice using standard herbicide small plot research methodology. Plot size was 2 m^2 using 1.6 m diameter rings placed into the paddy soil with capability for flooding with water to represent flooded rice culture. There were 3 replicates per treatment. Rice was Japonica type that was sown in rice nursery boxes as per normal cultural practices, and then transplanted 30 days after sowing into flooded rings. The rice crop was grown using normal cultural practices for fertilization, seeding, watering, flooding and maintenance to ensure good growth of the crop and the weeds under seeded rice conditions in Taiwan. Ring plot water depth was maintained at 3 to 7 cm depth after transplanting. Just prior to treatment application, plot water was drained to maintain saturated soil in ring plot. Treatments were applied by hand and water was re-induced to 3 to 7 cm depth 24 hours after application. All treatments in the field trials were applied by mixing the treatments with soil just prior to application by hand into the ring plots at 5 to 7 days after transplanting. Commercially available products of penoxsulam and butachlor were mixed in water and sprayed onto 45 grams of soil, which is equivalent to the area treated at an application rate of 225 kg soil/ha. For each 2 m^2 plot, 45 g soil was mixed with the appropriate formulated product amounts to treat 2 m^2 to achieve the desired application rates based on unit area of application (hectare). Treatments were rated as compared to the untreated control plots. Visual weed control was rated on a scale of 0 to 100 percent, where 0 corresponds to no injury and 100 corresponds to complete kill. The treated plots and control plots were rated blind at various intervals after application. Ratings were based of Percent (%) Visual weed control, where 0 corresponds to no injury and 100 corresponds to complete kill. Colby's equation was used to determine the herbicidal effects expected from the mixtures (Colby, S. R. Calculation of the synergistic and antagonistic response of herbicide combinations. Weeds 1967 15, 20-22). The following equation was used to calculate the expected activity of mixtures containing two active ingredients, A and B: Expected=A+B−(A×B/100) A=observed efficacy of active ingredient A at the same concentration as used in the mixture; B=observed efficacy of active ingredient B at the same concentration as used in the mixture.

MOOVA - pickerel weed = test: Weed control in transplanted rice, Field trial #2; format: in vivo, Monochoria vaginalis; conditions: 28 days after application
Method: as §1

## CCCCOCN(C(=O)CCl)c1c(CC)cccc1CC [Butachlor, N-butoxymethyl-2-chloro-2′,6′-diethylacetanilide]
ECHCG - barnyard grass [1]; Butachlor 600 grams ai/ha
  ECHCG Obs - percent control observed: 0%
ISCRU - winklegrass; Butachlor 300 grams ai/ha
  ISCRU Obs - percent control observed: 23%
ECHCG - barnyard grass [2]; Butachlor 300 grams ai/ha
  ECHCG Obs - percent control observed: 13%
MOOVA - pickerel weed; Butachlor 300 grams ai/ha
  MOOVA Obs - percent control observed: 26%

## COc1cnc(OC)n2nc(NS(=O)(=O)c3c(OCC(F)F)cccc3C(F)(F)F)nc12 [Penoxsulam]
ECHCG - barnyard grass [1]; Penoxsulam 30 grams ai/ha
  ECHCG Obs - percent control observed: 27%
ISCRU - winklegrass; Penoxsulam 13 grams ai/ha
  ISCRU Obs - percent control observed: 1%
ECHCG - barnyard grass [2]; Penoxsulam 3.8 grams ai/ha
  ECHCG Obs - percent control observed: 0%
ECHCG - barnyard grass [2]; Penoxsulam 7.5 grams ai/ha
  ECHCG Obs - percent control observed: 15%
ECHCG - barnyard grass [2]; Penoxsulam 15 grams ai/ha
  ECHCG Obs - percent control observed: 88%
MOOVA - pickerel weed; Penoxsulam 3.8 grams ai/ha
  MOOVA Obs - percent control observed: 75%
